{
  "source": "patent US20060069043A1",
  "about": "“Chiral separation, characterization and biological action of optically active isomers of digoxin” (priority 2004, published 2006)",
  "key": {"[1]": {"system": "gram-negative and gram-positive bacteria", "settings": "against both gram-negative and gram-positive bacteria; cited from earlier work"}, "guinea pig": {"system": "guinea pig", "experiment": "Effect on PR interval (AV node conduction) and cardiac contractibility in anesthetized open-chest guinea pig", "type": "in vivo", "settings": "pentobarbital anesthesia, IV infusion at 6 μg/kg/min continuously", "experimental": "The guinea pig or rat is anesthetized with pentobarbital at 40 mg/kg IP, then connected to an EKG recorder. The animal is then placed on a small animal respirator. Aseptic surgical instruments are soaked in ethanol and then flamed. An incision is made in the chest wall to open the chest. A Walton Brody stain gauge arch is sutured to the right ventricle to measure contractile changes. The refractoriness of the AV node is determined by measuring the PR interval on the surface EKG. Graphs can be created from the data displaying the dose related change in the PR interval to the dose related contractile augmentation. Digoxin or chiral isolates are infused through the jugular vein at concentrations (from 0.1 μM and then to 10 μM) at a constant rate by infusion pump, to determine the differential effects on the AV node and cardiac contractibility. The infusions are continued to a 50% level augmentation in contractibility or the development of ventricular tachycardia. To maintain a consistent level of anesthesia, pentobarbital 20 mg/kg IP or 10 mg/kg IV for more immediate action at 30-minute intervals may be administered.\nThe effect of digoxin and one of the two chiral isomers was evaluated in the guinea pig. Guinea pigs were anesthetized with pentobarbital. […] An EKG was continuously recorded. Conduction through the AV node was determined by measuring the PR interval on the surface EKG. […]"}, "serum protein [2]": {"system": "serum protein", "experiment": "Free fraction by centrifugation", "type": "in vitro ADME", "settings": "for fraction unbound at 60 min: centrifugation time 60 minutes", "experimental": "Free fraction of digitoxin increased with centrifugation time from 18% at 10 minutes to 37% at 80 minutes (500 g) without reaching plateau levels."}, "serum protein [3]": {"system": "serum protein", "experiment": "Serum protein binding by equilibrium dialysis", "type": "in vitro ADME, patients", "settings": "human, read-out: digitoxin binding (protein binding), mean (converted)", "experimental": "Equilibrium was obtained after 16 hours when titrated glycoside was added to serum. When added to the buffer phase, equilibrium was reached after 60 hours. Distribution of digitoxin, for example, in buffer-buffer control, was around 50% (49.4 to 50.6%). Absorption of ^3H-labeled glycoside to the dialysis membrane was 0.2% of the added ^3H-glycoside. Digitoxin protein binding was dependent on albumin content. […] No trace of protein was found when adding concentrated perchloric acid to the buffer phase. Counting efficacy was the same whether serum or buffer aliquots were added to the counting fluid. The counting error for buffer samples containing the smallest amount of radioactivity was 1% to 1.5%. Chamber equilibrium dialysis gave similar results. […] No significant change in digitoxin binding was found when the sera from 9 patients were dialyzed at 20° C. (mean, 96.7%) and at 37° C. (mean, 96.9%). Digoxin isolates will be used under similar conditions."}, "serum protein [4]": {"system": "serum protein", "experiment": "In vitro drug studies: ability to induce changes in digitoxin serum protein binding", "type": "in vitro ADME", "settings": "procainamide 5 mg/ml, phenytoin 50 mg/ml, heparin 5 IU/ml, rifampicillin 4.5 μg/ml", "experimental": "The ability to induce changes in digitoxin serum protein binding was tested for the following drugs: procainamide (5 mg/ml), phenytoin (50 mg/ml), heparin (5 IU/ml), and rifampicillin (4.5 μg/ml). […] Identical procedures will be used for digoxin isolates."}},
  "note": "Like-named read-outs stand apart in the source and are kept apart here.",
  "data": [
    {"molecule": "CC1COc2c(N3CCN(C)CC3)c(F)cc3c(=O)c(C(=O)O)cn1c23", "note": "(single isomer, unassigned; (-)) [(−)-Ofloxacin]", "values": [
      {"measurement": "activity relative to the racemate", "setting": "[1]", "result": "8-128 times"}
    ]},
    {"molecule": "CC1O[C@@H](O[C@H]2C(O)C[C@H](O[C@H]3C(O)C[C@H](OC4CC[C@@]5(C)[C@H](CC[C@@H]6[C@@H]5C[C@@H](O)[C@]5(C)[C@@H](C7=CC(=O)OC7)CC[C@]65O)C4)OC3C)OC2C)CC(O)[C@@H]1O", "note": "(stereo partly shown) [Digoxin]", "values": [
      {"measurement": "PR interval on the surface EKG (conduction through the AV node)", "setting": "guinea pig", "result": "progressive increase in PR interval"},
      {"measurement": "cardiac contractibility as measured by the strain-gauge arch", "setting": "guinea pig", "result": "increase in cardiac contractibility"}
    ]},
    {"molecule": "C[C@H]1O[C@@H](O[C@H]2[C@@H](O)C[C@H](O[C@H]3[C@@H](O)C[C@H](O[C@H]4CC[C@@]5(C)[C@H](CC[C@@H]6[C@@H]5CC[C@]5(C)[C@@H](C7=CC(=O)OC7)CC[C@]65O)C4)O[C@@H]3C)O[C@@H]2C)C[C@H](O)[C@@H]1O", "note": "[digitoxin]", "values": [
      {"measurement": "fraction unbound at 10 min", "setting": "serum protein [2]; centrifugation time 10 minutes, 500 g", "result": 0.18},
      {"measurement": "fraction unbound at 60 min", "setting": "serum protein [2]; 135 g", "result": 0.059},
      {"measurement": "fraction unbound at 60 min", "setting": "serum protein [2]; 560 g", "result": 0.157},
      {"measurement": "fraction unbound at 80 min", "setting": "serum protein [2]; centrifugation time 80 minutes, 500 g", "result": 0.37},
      {"measurement": "fraction unbound", "setting": "serum protein [3]; sera from 9 patients dialyzed at 20° C.", "result": 0.033},
      {"measurement": "fraction unbound", "setting": "serum protein [3]; sera from 9 patients dialyzed at 37° C.", "result": 0.031}
    ]},
    {"molecule": "O=C1NC(=O)C(c2ccccc2)(c2ccccc2)N1", "note": "[phenytoin]", "values": [
      {"measurement": "changes in the serum protein binding of digitoxin", "setting": "serum protein [4]", "result": "None of these induced significant changes"}
    ]},
    {"molecule": "CCN(CC)CCNC(=O)c1ccc(N)cc1", "note": "[procainamide]", "values": [
      {"measurement": "changes in the serum protein binding of digitoxin", "setting": "serum protein [4]", "result": "None of these induced significant changes"}
    ]},
    {"molecule": "heparin", "values": [
      {"measurement": "changes in the serum protein binding of digitoxin", "setting": "serum protein [4]", "result": "None of these induced significant changes"}
    ]},
    {"molecule": "rifampicillin", "values": [
      {"measurement": "changes in the serum protein binding of digitoxin", "setting": "serum protein [4]", "result": "None of these induced significant changes"}
    ]}
  ]
}
